Assays:
[1] = system: amaranthus retroflexus L.; assay: herbicidal activity, soil treatment one day after sowing; assay type: in vivo
[2] = system: echinocloa crus-galli R.S.; assay: as above; assay type: in vivo
setaria glauca L. = assay: as above; assay type: in vivo
avena sativa (oats) = assay: activity on agrarian species, soil treatment one day after sowing; assay type: in vivo, Avena sativa L.
[3] = system: beta vulgaris L. (sugar-beet); assay: as above; assay type: in vivo
Description: (§1) The infesting species and the agrarian species have been indicated in Table 1 by letters, as follows:
H = beta vulgaris L. (sugar-beet)
(§2) Method of evaluation of the results (of tests):
(§3) 0 = no activity and no difference with respect to the control;
(§4) 1 slight differences with respect to the control;
(§5) 3 = considerable activity with damages that definitely impair the further development of most of the small plants; an activity degree already useful for practical purposes;
(§6) 4 = maximum of activity with lack of germination or total containment of the small plants in the emerging stage.
(§7) In the case of an intermediate activity between two classes of the scale, both values are recorded with the one which corresponds to the preeminent activity preceding.
TABLE 2 reports the activity data of other compounds that fall within the class which is the object of this invention.
(§8) TABLE 3 reports data on the herbicidal activity against infesting herbs, while TABLE 4 reports data concerning the activity on useful species of agricultural cultivations. These tables employ the criterion explained previously. The product was spread on the soil one day after sowing, in quantities of 1, 3, 6, 8, 10, 12 and 14 kg/ha.

[4] = system: phaseolus vulgaris (bean); assay: as above; assay type: in vivo, Phaseolus vulgaris L.
In short: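 Product applied to soil one day after sowing at 1, 3, 6, 8, 10, 12 and 14 kg/ha. Effect on bean plants scored against control on a 0–4 scale, 4 meaning no germination or total containment at emergence; intermediate activity recorded with both values.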

solanum Lycopersicum L. = assay: as above; assay type: in vivo; conditions: 6 kg/ha
Description: as §1
M = solanum Lycopersicum L.
as §2, §3, §4, §5, §6
In the case of an intermediate activity between two classes of the scale, both values are recorded with the one which corresponds to the preeminent activity preceding. […]

[5] = system: triticum vulgare L. (wheat); assay: as above; assay type: in vivo
In short: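 Pre-emergence soil treatment one day after sowing of wheat, product applied at 1, 3, 6, 8, 10, 12 and 14 kg/ha. Activity scored visually on a 0–4 scale relative to untreated control (0 = none, 4 = no germination/total containment); intermediate activity recorded as both values.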

zea mais L. (corn) = assay: as above; assay type: in vivo
In short: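 Pre-emergence soil application one day after sowing at 1, 3, 6, 8, 10, 12 and 14 kg/ha. Crop damage scored visually against untreated control on a 0–4 scale (0 = no effect, 4 = no germination or total containment at emergence); intermediate effects recorded with both scores.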

oryza sativa L. (rice) = assay: as above; assay type: in vivo
In short: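 Pre-emergence soil treatment of rice applied one day after sowing at 1, 3, 6, 8, 10, 12 and 14 kg/ha. Crop injury scored against untreated control on a 0–4 scale, 4 being no germination or total containment at emergence; intermediate activity recorded as both adjacent classes.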

Brassica napus L. colza = assay: activity of PA 106 on useful species; assay type: in vivo
Description: as §2, §3, §4, §5, §6, §7, §8

[6] = system: Brassica oleracea, L. (cabbage); assay: activity of PA 106 on useful species; assay type: in vivo
Description: as §2, §3, §4, §5, §6, §7, §8

[7] = system: Hordeum vulgare L. (barley); assay: activity of PA 106 on useful species; assay type: in vivo
Description: as §2, §3, §4, §5, §6, §7, §8

Soja Hispida L. (soya) = assay: activity of PA 106 on useful species; assay type: in vivo
Description: as §2, §3, §4, §5, §6, §7, §8

CCC(C)N(C(=O)c1ccc(Cl)c(Cl)c1)C(C)CC (stereo not shown) [PA106, 3,4-dichloro-N,N-di-sec.butyl-benzamide]
0: herbicidal activity, Table 3 ([1]; 1 kg/ha) | activity on useful species, Table 4 (avena sativa (oats); 1 kg/ha) | activity on useful species, Table 4 (avena sativa (oats); 3 kg/ha) | activity on G, 0-4 scale (avena sativa (oats); 6 kg/ha) | activity on useful species, Table 4 (avena sativa (oats); 6 kg/ha) | activity on useful species, Table 4 (avena sativa (oats); 8 kg/ha) | activity on useful species, Table 4 ([3]; 1 kg/ha) | activity on useful species, Table 4 ([3]; 3 kg/ha) | activity on useful species, Table 4 ([4]; 1 kg/ha) | activity on useful species, Table 4 ([4]; 3 kg/ha) | activity on I, 0-4 scale ([4]; 6 kg/ha) | activity on useful species, Table 4 ([4]; 6 kg/ha) | activity on useful species, Table 4 ([4]; 8 kg/ha) | activity on useful species, Table 4 ([4]; 10 kg/ha) | activity on M, 0-4 scale (solanum Lycopersicum L.) | activity on useful species, Table 4 ([5]; 1 kg/ha) | activity on useful species, Table 4 ([5]; 3 kg/ha) | activity on N, 0-4 scale ([5]; 6 kg/ha) | activity on useful species, Table 4 ([5]; 6 kg/ha) | activity on useful species, Table 4 (zea mais L. (corn); 1 kg/ha) | activity on useful species, Table 4 (zea mais L. (corn); 3 kg/ha) | activity on O, 0-4 scale (zea mais L. (corn); 6 kg/ha) | activity on useful species, Table 4 (zea mais L. (corn); 6 kg/ha) | activity on useful species, Table 4 (zea mais L. (corn); 8 kg/ha) | activity on useful species, Table 4 (zea mais L. (corn); 10 kg/ha) | activity on useful species, Table 4 (oryza sativa L. (rice); 1 kg/ha) | activity on useful species, Table 4 (oryza sativa L. (rice); 3 kg/ha) | activity on P, 0-4 scale (oryza sativa L. (rice); 6 kg/ha) | activity on useful species, Table 4 (oryza sativa L. (rice); 6 kg/ha) | activity on useful species, Table 4 (oryza sativa L. (rice); 8 kg/ha) | activity on useful species, Table 4 (oryza sativa L. (rice); 10 kg/ha) | activity on useful species, Table 4 (oryza sativa L. (rice); 12 kg/ha) | activity on useful species, Table 4 (Brassica napus L. colza; 1 kg/ha) | activity on useful species, Table 4 (Brassica napus L. colza; 3 kg/ha) | activity on useful species, Table 4 ([6]; 1 kg/ha) | activity on useful species, Table 4 ([6]; 3 kg/ha) | activity on useful species, Table 4 ([7]; 1 kg/ha) | activity on useful species, Table 4 ([7]; 3 kg/ha) | activity on useful species, Table 4 ([7]; 6 kg/ha) | activity on useful species, Table 4 ([7]; 8 kg/ha) | activity on useful species, Table 4 (Soja Hispida L. (soya); 1 kg/ha) | activity on useful species, Table 4 (Soja Hispida L. (soya); 3 kg/ha) | activity on useful species, Table 4 (Soja Hispida L. (soya); 6 kg/ha) | activity on useful species, Table 4 (Soja Hispida L. (soya); 8 kg/ha)
0/1: herbicidal activity, Table 3 ([2]; 1 kg/ha) | activity on useful species, Table 4 (avena sativa (oats); 10 kg/ha) | activity on useful species, Table 4 (avena sativa (oats); 12 kg/ha) | activity on useful species, Table 4 ([4]; 12 kg/ha) | activity on useful species, Table 4 ([4]; 14 kg/ha) | activity on useful species, Table 4 ([5]; 8 kg/ha) | activity on useful species, Table 4 ([5]; 10 kg/ha) | activity on useful species, Table 4 (zea mais L. (corn); 12 kg/ha) | activity on useful species, Table 4 (oryza sativa L. (rice); 14 kg/ha) | activity on useful species, Table 4 ([6]; 6 kg/ha) | activity on useful species, Table 4 ([7]; 10 kg/ha) | activity on useful species, Table 4 ([7]; 12 kg/ha) | activity on useful species, Table 4 ([7]; 14 kg/ha) | activity on useful species, Table 4 (Soja Hispida L. (soya); 10 kg/ha) | activity on useful species, Table 4 (Soja Hispida L. (soya); 12 kg/ha) | activity on useful species, Table 4 (Soja Hispida L. (soya); 14 kg/ha)
4: herbicidal activity, Table 3 ([1]; 10 kg/ha) | herbicidal activity, Table 3 ([1]; 12 kg/ha) | herbicidal activity, Table 3 ([1]; 14 kg/ha) | activity on D, 0-4 scale ([2]; 6 kg/ha) | herbicidal activity, Table 3 ([2]; 6 kg/ha) | herbicidal activity, Table 3 ([2]; 8 kg/ha) | herbicidal activity, Table 3 ([2]; 10 kg/ha) | herbicidal activity, Table 3 ([2]; 12 kg/ha) | herbicidal activity, Table 3 ([2]; 14 kg/ha) | activity on E, 0-4 scale (setaria glauca L.; 6 kg/ha) | herbicidal activity, Table 3 (setaria glauca L.; 6 kg/ha) | herbicidal activity, Table 3 (setaria glauca L.; 8 kg/ha) | herbicidal activity, Table 3 (setaria glauca L.; 10 kg/ha) | herbicidal activity, Table 3 (setaria glauca L.; 12 kg/ha) | herbicidal activity, Table 3 (setaria glauca L.; 14 kg/ha)
2: activity on A, 0-4 scale ([1]; 4 kg/ha) | activity on D, 0-4 scale ([2]; 2 kg/ha) | activity on useful species, Table 4 ([3]; 12 kg/ha) | activity on useful species, Table 4 ([6]; 14 kg/ha)
3: activity on A, 0-4 scale ([1]; 6 kg/ha) | herbicidal activity, Table 3 ([1]; 6 kg/ha) | herbicidal activity, Table 3 ([2]; 3 kg/ha) | herbicidal activity, Table 3 (setaria glauca L.; 3 kg/ha) | activity on useful species, Table 4 (Brassica napus L. colza; 12 kg/ha) | activity on useful species, Table 4 (Brassica napus L. colza; 14 kg/ha)
2/3: herbicidal activity, Table 3 (setaria glauca L.; 1 kg/ha) | activity on useful species, Table 4 ([3]; 14 kg/ha) | activity on useful species, Table 4 (Brassica napus L. colza; 10 kg/ha)
3-4: activity on D, 0-4 scale ([2]; 4 kg/ha) | activity on E, 0-4 scale (setaria glauca L.; 4 kg/ha)
4/3: herbicidal activity, Table 3 ([1]; 8 kg/ha)
1/2: herbicidal activity, Table 3 ([1]; 3 kg/ha) | activity on useful species, Table 4 ([3]; 10 kg/ha) | activity on useful species, Table 4 (Brassica napus L. colza; 8 kg/ha) | activity on useful species, Table 4 ([6]; 10 kg/ha) | activity on useful species, Table 4 ([6]; 12 kg/ha)
1: activity on A, 0-4 scale ([1]; 2 kg/ha) | activity on useful species, Table 4 (avena sativa (oats); 14 kg/ha) | activity on H, 0-4 scale ([3]; 6 kg/ha) | activity on useful species, Table 4 ([3]; 6 kg/ha) | activity on useful species, Table 4 ([3]; 8 kg/ha) | activity on useful species, Table 4 ([5]; 12 kg/ha) | activity on useful species, Table 4 ([5]; 14 kg/ha) | activity on useful species, Table 4 (zea mais L. (corn); 14 kg/ha) | activity on useful species, Table 4 (Brassica napus L. colza; 6 kg/ha) | activity on useful species, Table 4 ([6]; 8 kg/ha)

From patent publication US3982931A, “N,N-di-sec.butyl-benzamide herbicides” (priority 1967, dated 1976)
